Counter-ions that a name gives are not always drawn. Like-named read-outs stand apart in the source and are kept apart here.
Legend:
E. coli UBMS 88-1 Tet B = assay: microbe, parasite or virus in culture; assay type: cell-based; conditions: Escherichia coli, UBMS881TETB, 18 h
E. coli J3272 Tet sens = assay: MIC, agar dilution; assay type: cell-based; conditions: Escherichia coli, J3272TETSENS, 18 h
E. coli PRP1 Tet A = assay: microbe, parasite or virus in culture; assay type: cell-based
[1] = system: E. coli MC 4100 TNIOC Tet B; assay: microbe, parasite or virus in culture; assay type: cell-based; conditions: Escherichia coli, 18 h
E. coli J3272 Tet C = assay: microbe, parasite or virus in culture; assay type: cell-based
E. coli UBMS 89-1 Tet M = assay: microbe, parasite or virus in culture; assay type: cell-based; conditions: Escherichia coli, UBMS891TETM, 18 h
[2] = system: E. coli UBMS 89-2 Tet sens.; assay: MIC, agar dilution; assay type: cell-based; conditions: Escherichia coli, 18 h
E. coli J2175 = assay: MIC, agar dilution; assay type: cell-based; conditions: Escherichia coli, 18 h, read-out: MIC
E. coli BAJ9003 IMP MUT = assay: microbe, parasite or virus in culture; assay type: cell-based; conditions: Escherichia coli, BAJ9003IMPMUT, 18 h
E. coli UBMS 90-4 Tet M = assay: microbe, parasite or virus in culture; assay type: cell-based; conditions: Escherichia coli, UBMS904TETM, 18 h
E. coli UBMS 90-5 = assay: microbe, parasite or virus in culture; assay type: cell-based; conditions: E. coli UBMS 90-5
E. coli #311 (MP) = assay: MIC, agar dilution; assay type: cell-based
E. coli ATCC 25922 = assay: MIC, agar dilution; assay type: cell-based; conditions: Escherichia coli, ATCC25922, 18 h
E. coli J3272 Tet D = assay: microbe, parasite or virus in culture; assay type: cell-based; conditions: Escherichia coli, J3272TETD, 18 h
S. marcescens FPOR 8733 = assay: MIC, agar dilution; assay type: cell-based; conditions: Serratia marcescens, FPOR8733, 18 h
[3] = system: X. maltophilia NEMC 87210; assay: MIC, agar dilution; assay type: cell-based; conditions: Stenotrophomonas maltophilia, NEMC87210, 18 h
[4] = system: Ps. aeruginosa ATCC 27853; assay: MIC, agar dilution; assay type: cell-based
S. aureus NEMC 8769 = assay: MIC, agar dilution; assay type: cell-based; conditions: Staphylococcus aureus, NEMC8769, 18 h
S. aureus UBMS 88-4 = assay: MIC, agar dilution; assay type: cell-based; conditions: Staphylococcus aureus, UBMS884, 18 h
[5] = system: S. aureus UBMS 88-5 Tet M; assay: microbe, parasite or virus in culture; assay type: cell-based; conditions: Staphylococcus aureus, UBMS885TETM, 18 h
[6] = system: S. aureus UBMS 88-7 Tet K; assay: microbe, parasite or virus in culture; assay type: cell-based; conditions: Staphylococcus aureus, UBMS887TETK, 18 h
[7] = system: S. aureus UBMS 90-1 Tet M; assay: microbe, parasite or virus in culture; assay type: cell-based; conditions: Staphylococcus aureus, UBMS901TETM, 18 h
S. aureus UBMS 90-3 = assay: MIC, agar dilution; assay type: cell-based; conditions: Staphylococcus aureus, UBMS903, 18 h
[8] = system: S. aureus UBMS 90-2 Tet M; assay: microbe, parasite or virus in culture; assay type: cell-based; conditions: Staphylococcus aureus, UBMS902TETM, 18 h
S. aureus IVES 2943 = assay: MIC, agar dilution; assay type: cell-based; conditions: Staphylococcus aureus, IVES2943, 18 h
S. aureus ROSE (MP) = assay: MIC, agar dilution; assay type: cell-based; conditions: Staphylococcus aureus, 18 h
S. aureus SMITH (MP) = assay: MIC, agar dilution; assay type: cell-based; conditions: Staphylococcus aureus, 18 h
S. aureus IVES 1983 = assay: MIC, agar dilution; assay type: cell-based; conditions: Staphylococcus aureus, IVES1983, 18 h
S. aureus ATCC 29213 = assay: MIC, agar dilution; assay type: cell-based; conditions: Staphylococcus aureus, ATCC29213, 18 h, S. aureus ATCC 29213
[9] = system: S. hemolyticus AVHAH 88-3; assay: MIC, agar dilution; assay type: cell-based; conditions: Streptococcus pyogenes, AVHAH883, 18 h
Enterococcus 12201 = assay: MIC, agar dilution; assay type: cell-based; conditions: Enterococcus, 12201, 18 h
E. faecalis ATCC 29212 = assay: MIC, agar dilution; assay type: cell-based; conditions: Enterococcus faecalis, ATCC29212, 18 h
[10] = system: Staphylococcus aureus strain Smith (tetracycline sensitive); assay: Acute lethal infection in mice, S. aureus Smith; assay type: in vivo; conditions: for ED50: Staphylococcus aureus, 168 h, mice, S. aureus Smith (Sens), 7 day survival, read-out: ED50; for in vivo activity (in words): tested intravenously against the minocycline sensitive organism S. aureus Smith
[11] = system: E. coli MC 4100 Tet sens.; assay: MIC, agar dilution; assay type: cell-based; conditions: Escherichia coli, 18 h
[12] = Escherichia coli, PRP1TETA, 18 h
[13] = Escherichia coli, J3272TETC, 18 h
[14] = Escherichia coli, UBMS905, 18 h, read-out: MIC
[15] = Pseudomonas aeruginosa, ATCC27853, 18 h, Ps. aeruginosa ATCC 27853, read-out: MIC

| SMILES | MIC (E. coli UBMS 88-1 Tet B) [µg/mL] | MIC (E. coli PRP1 Tet A; [12]) [µg/mL] | MIC [1] [µg/mL] | MIC (E. coli J3272 Tet C; [13]) [µg/mL] | MIC (E. coli UBMS 89-1 Tet M) [µg/mL] | MIC [2] [µg/mL] | MIC (E. coli J2175) [µg/mL] | MIC (E. coli BAJ9003 IMP MUT) [µg/mL] | MIC (E. coli UBMS 90-4 Tet M) [µg/mL] | MIC (E. coli UBMS 90-5; [14]) [µg/mL] | MIC (E. coli #311 (MP); Escherichia coli, 18 h) [µg/mL] | MIC (E. coli ATCC 25922) [µg/mL] | MIC (E. coli J3272 Tet D) [µg/mL] | MIC [3] [µg/mL] | MIC [5] [µg/mL] | MIC [6] [µg/mL] | MIC [7] [µg/mL] | MIC (S. aureus UBMS 90-3) [µg/mL] | MIC (S. aureus IVES 1983) [µg/mL] | MIC (S. aureus ATCC 29213) [µg/mL] | further results |
| --- | --- | --- | --- | --- | --- | --- | --- | --- | --- | --- | --- | --- | --- | --- | --- | --- | --- | --- | --- | --- | --- |
| CN(C)[C@@H]1C(O)=C(C(N)=O)C(=O)[C@@]2(O)C(O)=C3C(=O)c4c(ccc(NC(=O)CBr)c4O)CC3CC12 (stereo partly drawn) [R, [4S-(4alpha,12aalpha)]-9-((Bromoacetyl)amino]-4-(dimethylamino)-1,4,4a,5,5a,6,11,12a-octahydro-3,10,12,12a-tetrahydroxy-1,11-dioxo-2-naphthacenecarboxamide monohydrochloride] | > 32 | > 32 | > 32 | > 32 | 8 | 32 | 32 | 1 | 32 | 32 | 16 | 16 | > 32 | 16 | 2 | 8 | 1 | 1 | 16 | 1 | MIC (E. coli J3272 Tet sens): 32 µg/mL; MIC (S. marcescens FPOR 8733): > 32 µg/mL; MIC [4, 15]: > 32 µg/mL; MIC (S. aureus NEMC 8769; read-out: MIC): 0.25 µg/mL; MIC (S. aureus UBMS 88-4; S. aureus UBMS 88-4, read-out: MIC): 0.5 µg/mL; MIC [8]: 2 µg/mL; MIC (S. aureus IVES 2943): 16 µg/mL; MIC (S. aureus ROSE (MP)): 16 µg/mL; MIC (S. aureus SMITH (MP)): 1 µg/mL; MIC [9]: 8 µg/mL; MIC (Enterococcus 12201): 4 µg/mL; MIC (E. faecalis ATCC 29212): 2 µg/mL |
| CN(C)CC(=O)Nc1ccc2c(c1O)C(=O)C1=C(O)[C@]3(O)C(=O)C(C(N)=O)=C(O)[C@@H](N(C)C)C3CC1C2 (stereo partly drawn) [AA, [4S-(4alpha,12aalpha)]-4-(Dimethylamino)-9-[[(dimethylamino)acetyl]amino]-1,4,4a,5,5a,6,11,12a-octahydro-3,10,12,12a-tetrahydroxy-1,11-dioxo-2-naphthacenecarboxamide disulfate] | 0.25 |  | 0.25 |  | 0.25 | 0.25 | 0.25 |  | 0.25 |  |  | 0.25 |  |  |  | 1 | 0.25 |  | 2 | < 0.015 | MIC (E. coli J3272 Tet sens): 0.25 µg/mL; MIC (E. coli PRP1 Tet A): 2 µg/mL; MIC (E. coli J3272 Tet C): 1 µg/mL; MIC (E. coli UBMS 90-5): 0.25 µg/mL; MIC (E. coli #311 (MP); E. coli #311 (MP)): 0.50 µg/mL; MIC (S. marcescens FPOR 8733; read-out: MIC): 4 µg/mL; MIC ([3]; X. maltophilia NEMC 87210, read-out: MIC): 2 µg/mL; MIC ([4]; Ps. aeruginosa ATCC 27853): 16 µg/mL; MIC (S. aureus NEMC 8769): 0.03 µg/mL; MIC (S. aureus UBMS 90-3; S. aureus UBMS 90-3): 0.06 µg/mL; MIC (S. aureus IVES 2943; S. aureus IVES 2943, read-out: MIC): 1 µg/mL; MIC (S. aureus ROSE (MP)): 4 µg/mL; MIC ([9]; S. hemolyticus AVHAH 88-3, read-out: MIC): 0.5 µg/mL; ED50 ([10]; iv, Intraveneous): 0.5 to 1 mg/kg; ED50 ([10]; po, Oral): > 16 mg/kg; in vivo activity (in words) [10]: very good in vivo activity |
| CCCCCCNCC(=O)Nc1ccc2c(c1O)C(=O)C1=C(O)[C@]3(O)C(=O)C(C(N)=O)=C(O)[C@@H](N(C)C)C3CC1C2 (stereo partly drawn) [G, [4S-(4alpha,12aalpha)]-4-(Dimethylamino)-9-[[(hexylamino)acetyl]amino]-1,4,4a,5,5a,6,11,12a-octahydro-3,10,12,12a-tetrahydroxy-1,11-dioxo-2-naphthacenecarboxamide dihydrochloride] | 1 | 1 | 1 | 1 | 0.25 | 1 | 1 | 0.12 | 0.5 | 1 | 1 | 1 | 0.5 | 1 | 0.5 | 1 | 1 | 0.25 | 1 | 0.5 | MIC [11]: 0.12 µg/mL; MIC (S. marcescens FPOR 8733; read-out: MIC): 8 µg/mL; MIC [4, 15]: 32 µg/mL; MIC (S. aureus NEMC 8769; read-out: MIC): 0.12 µg/mL; MIC (S. aureus UBMS 88-4): 0.25 µg/mL; MIC [8]: 0.25 µg/mL; MIC (S. aureus IVES 2943): 2 µg/mL; MIC (S. aureus ROSE (MP); read-out: MIC): 4 µg/mL; MIC (S. aureus SMITH (MP)): 0.25 µg/mL; MIC [9]: 2 µg/mL; MIC (Enterococcus 12201): 0.25 µg/mL; MIC (E. faecalis ATCC 29212; E. faecalis ATCC 29212, read-out: MIC): 0.12 µg/mL; ED50 ([10]; iv, Intraveneous): > 4 mg/kg; ED50 ([10]; po, Oral): > 16 mg/kg; in vivo activity (in words) [10]: very good in vivo activity |
| CN(C)[C@@H]1C(O)=C(C(N)=O)C(=O)[C@@]2(O)C(O)=C3C(=O)c4c(ccc(NC(=O)CNCC5CC5)c4O)CC3CC12 (stereo partly drawn) [Q, [4S-(4alpha,12aalpha)]-9-[[[(Cyclopropylmethyl)amino]acetyl]amino]-4-(dimethylamino)-1,4,4a,5,5a,6,11,12a-octahydro-3,10,12,12a-tetrahydroxy-1,11-dioxo-2-naphthacenecarboxamide dihydrochloride] | 0.5 | 2 | 1 | 0.5 | 0.5 | 1 | 1 | 0.25 | 0.25 | 0.5 | 1 | 0.5 | 0.25 | 4 | 0.5 | 8 | 0.5 | 0.5 | 4 | 0.5 | MIC [11]: 0.25 µg/mL; MIC (S. marcescens FPOR 8733; read-out: MIC): 8 µg/mL; MIC ([4]; Pseudomonas aeruginosa, ATCC27853, 18 h): 16 µg/mL; MIC (S. aureus NEMC 8769): 0.5 µg/mL; MIC (S. aureus UBMS 88-4): 0.5 µg/mL; MIC [8]: 0.5 µg/mL; MIC (S. aureus IVES 2943): 8 µg/mL; MIC (S. aureus ROSE (MP)): 16 µg/mL; MIC (S. aureus SMITH (MP)): 0.5 µg/mL; MIC [9]: 4 µg/mL; MIC (Enterococcus 12201): 0.5 µg/mL; MIC (E. faecalis ATCC 29212): 0.25 µg/mL; ED50 ([10]; po, Oral): > 16 mg/kg; in vivo activity (in words) [10]: very good in vivo activity |

From patent publication US5567692A, “9-[(substituted glycyl) amido)]-6-demethyl-6-deoxytetracyclines” (priority 1995, dated 1996)
